Laboratory results as given in ChEMBL document CHEMBL1158501, “Synthesis and structure-activity relationships of novel furazan-3,4-diamide analogs as potent anti-cancer agents” (Bioorg Med Chem Lett, 2010).

Tests used:
SW480 [1] = assay: Inhibition of human SW480 cells after 48 hrs; assay type: functional, cell-based; conditions: SW480, 48 h
U-87 MG [2] = assay: Inhibition of human U87MG cells after 48 hrs; assay type: functional, cell-based, U-87MG ATCC
U-87 MG [3] = assay: Inhibition of human U87MG cells at >= IC50 after 48 hrs; assay type: functional, U-87MG ATCC
SW480 [4] = assay: Inhibition of human SW480 cells at >= IC50 after 48 hrs; assay type: functional

Row | SMILES | IC50 (SW480 [1]) [µM] | IC50 (U-87 MG [2]) [µM] | inhibition (INH) (U-87 MG [3]) [%] | inhibition (INH) (SW480 [4]) [%]
1 | COc1ccc(C(=O)Nc2nonc2NC(=O)c2ccc(OC)cc2)cc1 | > 40 | > 40 |  | 
2 | O=C(Nc1nonc1NC(=O)c1ccccc1)c1ccccc1 | 137 | 122 |  | 
3 | O=C(Nc1nonc1NC(=O)c1cccc(C(F)(F)F)c1)c1cccc(C(F)(F)F)c1 | > 10 | > 10 |  | 
4 | O=C(Nc1cscc1NC(=O)c1ccc(C(F)(F)F)cc1)c1ccc(C(F)(F)F)cc1 | > 8 | > 8 |  | 
5 | O=C(Nc1ccccc1NC(=O)c1ccc(C(F)(F)F)cc1)c1ccc(C(F)(F)F)cc1 | > 8 | > 8 |  | 
6 | O=C(CCl)Nc1nonc1NC(=O)CCl | 7.4 | 17.1 |  | 
7 | Nc1nonc1NC(=O)c1ccc(C(F)(F)F)cc1 | > 200 | > 200 |  | 
8 | O=C(Nc1nonc1NC(=O)c1ccc(Cl)c(Cl)c1)c1ccc(Cl)c(Cl)c1 | 39.7 | 24 |  | 
9 | O=C(Nc1nonc1NC(=O)c1ccc(Cl)cc1)c1ccc(Cl)cc1 | 8 | 14 | 70 | 50
10 | O=C(CN1CCOCC1)Nc1nonc1NC(=O)CN1CCOCC1 | > 200 | > 200 |  | 
11 | O=C(Nc1nonc1NC(=O)C(Cl)(Cl)Cl)C(Cl)(Cl)Cl | > 200 | > 200 |  | 
12 | O=C(Nc1nonc1NC(=O)c1ccc(C(F)(F)F)cc1)c1ccc(C(F)(F)F)cc1 | 11.2 | 14.6 |  | 
13 | O=C(Nc1nonc1NC(=O)c1c(F)c(F)c(F)c(F)c1F)c1c(F)c(F)c(F)c(F)c1F | 17.2 | 25.5 |  | 
14 | O=C(Nc1n[nH]c(O)c1NC(=O)c1ccc(C(F)(F)F)cc1)c1ccc(C(F)(F)F)cc1 | > 200 | > 200 |  | 
15 | O=C(Nc1nonc1NC(=O)C1CCCC1)C1CCCC1 | > 200 | > 200 |  | 
16 | O=C(Nc1nonc1NC(=O)c1ccco1)c1ccco1 | > 200 | > 200 |  | 
17 | COc1cccc(C(=O)Nc2nonc2NC(=O)c2cccc(OC)c2)c1 | 71 | 70.7 |  | 
18 | O=C(Nc1nonc1NC(=O)c1ccc(I)cc1)c1ccc(I)cc1 | 2 | 1 | 70 | 50
19 | O=C(Nc1nonc1NC(=O)c1cc(C(F)(F)F)cc(C(F)(F)F)c1)c1cc(C(F)(F)F)cc(C(F)(F)F)c1 | 10.8 | 17.7 |  | 
20 | CC(C)=CC(=O)Nc1nonc1NC(=O)C=C(C)C | > 200 | > 200 |  | 
21 | O=C(Nc1nonc1NC(=O)c1ccccc1C(F)(F)F)c1ccccc1C(F)(F)F | 89.3 | > 100 |  | 
22 | O=C(Nc1nonc1NCc1ccc(C(F)(F)F)cc1)c1ccc(C(F)(F)F)cc1 | 18.5 | 18.2 |  | 
23 | O=C(Nc1nonc1NC(=O)C1CCCCC1)C1CCCCC1 | > 20 | > 20 |  | 
24 | Cc1ccc(C(=O)Nc2nonc2NC(=O)c2ccc(C)cc2)cc1 | > 40 | > 40 |  | 
25 | FC(F)(F)c1ccc(CNc2nonc2NCc2ccc(C(F)(F)F)cc2)cc1 | 22.9 | 20.6 |  | 
26 | O=C(Nc1nonc1NC(=O)c1ccc(F)cc1)c1ccc(F)cc1 | 10 | 6 |  | 50
27 | O=C(Nc1nonc1NC(=O)c1ccc(Br)cc1)c1ccc(Br)cc1 | 4 | 14 | 77 | 50
